For 20 compounds, IC50 and MIC50 results are on record in patent publication US20260199483A1 (Bright Angel Therapeutics Inc., priority 2022, published 2026).

Data set [1] in a line: Mammalian cell toxicity (Cell Titer-Glo). Type of data set: cell-based. Conditions: human; HepG2 cells, 48 h incubation, Cell Titer-Glo luminescence. The protocol: HepG2 cells were seeded overnight at 500 cells/well in 384-well plate, then incubated with compounds (10-point concentration titration) for 48 h. Cell Titer-Glo® reagent ([…]) was added to each well and after 10-minute incubation at room temperature the luminescent signal was measured using an Envision plate reader (Perkin Elmer).
A general note: Cellular ATP, detected with luciferase, serves as a proxy for viable cell number.

The target in data set [2] is T1, purified recombinant Yck2 (Candida albicans, UniProt A0A1D8PKB4).
T1 construct: Yck2 residues 37-345 were PCR amplified from C. albicans genomic DNA; His6 (N); TEV protease site (N); made in house; host or cells: E. coli BL21(DE3)-Gold
Kind of data set: HotSpot kinase assay. The format is biochemical, C. albicans. The protocol:
IC50s were determined using the in vitro HotSpot kinase assay (purified enzymes, ^33P-ATP, an appropriate substrate and 1 μM ATP). For enzyme inhibition assays, compounds were tested in range of ten concentrations from 10 uM to 0.0005 uM using purified recombinant Yck2. Reaction conditions were 1 uM ATP, one hour incubation with inhibitor, and kinase activity detected using 33-ATP phosphorylation of an appropriately selected peptide substrate.
Yck2 residues 37-345 were PCR amplified from C. albicans genomic DNA and subcloned into the vector pMCSG53, which codes for a N-terminal His6 tag, TEV protease site, followed by the Yck2 protein. E. coli BL21(DE3)-Gold competent cells were transformed with this plasmid and the Yck2 protein was purified using methodology previously described (Stogios et al., ACS Chem. Biol. 13, 1322-1332 (2018)).

The test system of the next data set is CaCi2. Kind of data set: Antifungal sensitivity testing (broth microdilution MIC). The format is cell-based. Conditions: CaCi2, 96-well broth microdilution, compounds in DMSO. As for the experimental part:
Minimum inhibitory concentrations (MICs) were determined in flat bottom, 96-well plate format using a modified broth microdilution protocol as previously described (Singh et al., PLoS Pathog. 5, e1000532 (2009); LaFayette et al., PLoS Pathog. 6, 79-80 (2010)). Compounds were formulated in dimethyl sulfoxide (DMSO, Sigma-Aldrich Co.). Each compound was tested in duplicate in at least two independent experiments.
(In general: Dilution methods test growth across graded concentrations, often in twofold steps.)

≈ marks a conversion by molar mass, not a printed value.

T1 sequence (A0A1D8PKB4 entry or part of it): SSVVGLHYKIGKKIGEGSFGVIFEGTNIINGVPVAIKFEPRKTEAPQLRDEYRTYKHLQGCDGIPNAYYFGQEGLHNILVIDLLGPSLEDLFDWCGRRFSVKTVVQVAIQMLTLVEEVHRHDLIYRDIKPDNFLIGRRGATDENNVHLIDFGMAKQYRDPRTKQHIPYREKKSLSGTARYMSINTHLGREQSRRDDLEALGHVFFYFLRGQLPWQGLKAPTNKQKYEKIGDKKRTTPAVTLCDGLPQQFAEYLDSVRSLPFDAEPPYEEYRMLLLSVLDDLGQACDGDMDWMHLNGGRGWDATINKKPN

Consider `Cn1cc(-c2ccnc3c2C(=O)N(C2CCN(CC(O)(Cn4cncn4)c4ccc(F)cc4F)CC2)C3)c(-c2ccc(F)cc2)n1` (centres unmarked) [Compound I-242, 6-(1-(2-(2,4-difluorophenyl)-2-hydroxy-3-(1H-1,2,4-triazol-1-yl)propyl)piperidin-4-yl)-4-(3-(4-fluorophenyl)-1-methyl-1H-pyrazol-4-yl)-6,7-dihydro-5H-pyrrolo[3,4-b]pyridin-5-one], for which the 50% inhibitory concentration (IC50) (as a rule, the concentration needed to halve the response being measured) at 48 h in data set [1] was over 20 µM. Moreover, the IC50 in data set [2] is 0.0153 µM. In the case of `Cn1cc(-c2ccnc3c2C(=O)N(CCC2CCN(CC(O)(Cn4ccnn4)c4ccc(F)cc4F)CC2)C3)c(-c2ccc(F)cc2)n1` (centres unmarked) [Compound I-250], the IC50 at 48 h in data set [1] is over 50 µM. For `Nc1nccc(-c2c(-c3ccc(F)cc3)ncn2C2CCN(CCCNCC(O)(Cn3cncn3)c3ccc(F)cc3F)CC2)n1` (centres unmarked) [Compound I-80, 1-((3-(4-(5-(2-aminopyrimidin-4-yl)-4-(4-fluorophenyl)-1H-imidazol-1-yl)piperidin-1-yl)propyl)amino)-2-(2,4-difluorophenyl)-3-(1H-1,2,4-triazol-1-yl)propan-2-ol], the IC50 at 48 h in data set [1] is over 20 µM. Also, the IC50 in data set [2] turned out to be 0.00333 µM. In the case of `O=C(CC(O)(Cn1cncn1)c1ccc(F)cc1F)NCc1ccc2c(-c3ccncc3)c(-c3ccc(F)cc3)nn2c1` (centres unmarked) [Compound I-255, 3-(2,4-difluorophenyl)-N-((2-(4-fluorophenyl)-3-(pyridin-4-yl)pyrazolo[1,5-a]pyridin-6-yl)methyl)-3-hydroxy-4-(1H-1,2,4-triazol-1-yl)butanamide], the IC50 at 48 h in data set [1] came to 22.5 µM. Besides, the MIC50 (usually an inhibitory concentration at the 50% level, which refers to growth in some studies and to a panel of isolates in others) in the data set with CaCi2 is 1.56 µM (≈ 0.91 µg/mL). Regarding `OC(COc1cccc2c(-c3ccncc3)c(-c3ccc(F)cc3)nn12)(Cn1cncn1)c1ccc(F)cc1F` (centres unmarked) [Compound I-139, 2-(2,4-difluorophenyl)-1-((2-(4-fluorophenyl)-3-(pyridin-4-yl)pyrazolo[1,5-a]pyridin-7-yl)oxy)-3-(1H-1,2,4-triazol-1-yl)propan-2-ol], in data set [1], the half-maximal inhibitory concentration (IC50) at 48 h was over 20 µM.

Take `OC(Cn1cncn1)(c1ccc(F)cc1F)C(F)(F)c1ccc(C#Cc2ccc(OCCNCc3ccc4c(-c5ccncc5)c(-c5ccc(F)cc5)nn4c3)cc2)cn1` (centres unmarked) [Compound I-270]: in data set [1], the IC50 at 48 h worked out at 1.54 µM. In addition, the MIC50 in the data set with CaCi2 is 0.586 µM (≈ 0.476 µg/mL). In data set [1], `Cn1cc(-c2ccncc2COC(=O)NC2CCN(CC(O)(Cn3cncn3)c3ccc(F)cc3F)CC2)c(-c2ccc(F)cc2)n1` (centres unmarked) [Compound I-244, (4-(3-(4-fluorophenyl)-1-methyl-1H-pyrazol-4-yl)pyridin-3-yl)methyl (1-(2-(2,4-difluorophenyl)-2-hydroxy-3-(1H-1,2,4-triazol-1-yl)propyl)piperidin-4-yl)carbamate] showed a 50% inhibitory concentration (IC50) at 48 h of 18.4 µM.

For the compound `O=C(NC1CCN(C[C@](O)(Cn2cncn2)c2ccc(F)cc2F)CC1)c1ccc2c(-c3ccncc3)c(-c3ccc(F)cc3)nn2c1` [Compound I-102, (S)-N-(1-(2-(2,4-difluorophenyl)-2-hydroxy-3-(1H-1,2,4-triazol-1-yl)propyl)piperidin-4-yl)-2-(4-fluorophenyl)-3-(pyridin-4-yl)pyrazolo[1,5-a]pyridine-6-carboxamide], the IC50 at 48 h in data set [1] amounted to 2.24 µM. Further, the IC50 in data set [2] was found to be 0.0466 µM. The MIC50 in the data set on CaCi2 was 3.12 µM (≈ 2.04 µg/mL).

On to `Fc1ccc(-c2nn3cc(CNC[C@H]4CO[C@@](Cn5cncn5)(c5ccc(F)cc5F)C4)ccc3c2-c2ccncc2)cc1` (stereo in doubt) [Compound I-257, 1-(cis-5-((1H-1,2,4-triazol-1-yl)methyl)-5-(2,4-difluorophenyl)tetrahydrofuran-3-yl)-N-((2-(4-fluorophenyl)-3-(pyridin-4-yl)pyrazolo[1,5-a]pyridin-6-yl)methyl)methanamine], for which the IC50 at 48 h in data set [1] came out at 5.57 µM. In the data set on CaCi2, this compound showed an MIC50 of 0.295 µM (≈ 0.176 µg/mL).

As for `CC(C)(C)OC(=O)N1CCc2c(n(CCCN3CCC(n4cnc(-c5ccc(F)cc5)c4-c4ccnc(N)n4)CC3)c3ccc(Cl)cc23)C1` [Compound I-229, tert-butyl 9-(3-(4-(5-(2-aminopyrimidin-4-yl)-4-(4-fluorophenyl)-1H-imidazol-1-yl)piperidin-1-yl)propyl)-6-chloro-1,3,4,9-tetrahydro-2H-pyrido[3,4-b]indole-2-carboxylate], inhibition in data set [1] was half-maximal at 5.59 µM (IC50 at 48 h). Also, in data set [2], the IC50 worked out at 0.0164 µM. `OC(Cn1cncn1)(c1ccc(F)cc1F)C(F)(F)c1ccc(C#Cc2ccc(CNCc3ccc4c(-c5ccncc5)c(-c5ccc(F)cc5)nn4c3)cc2)cn1` (centres unmarked) [Compound I-267, 2-(2,4-difluorophenyl)-1,1-difluoro-1-(5-((4-((((2-(4-fluorophenyl)-3-(pyridin-4-yl)pyrazolo[1,5-a]pyridin-6-yl)methyl)amino)methyl)phenyl)ethynyl)pyridin-2-yl)-3-(1H-1,2,4-triazol-1-yl)propan-2-ol] had an IC50 at 48 h in data set [1] of 8.03 µM.

For `O=C(NC1CCN(C[C@@](O)(Cn2cncn2)c2ccc(F)cc2F)CC1)c1ccc2c(-c3ccncc3)c(-c3ccc(F)cc3)nn2c1` [Compound I-103, (R)-N-(1-(2-(2,4-difluorophenyl)-2-hydroxy-3-(1H-1,2,4-triazol-1-yl)propyl)piperidin-4-yl)-2-(4-fluorophenyl)-3-(pyridin-4-yl)pyrazolo[1,5-a]pyridine-6-carboxamide], 6.38 µM corresponded to half-maximal inhibition in data set [1] (IC50 at 48 h). In addition, the concentration for half-maximal inhibition (IC50) in data set [2] came to 0.0495 µM. The same compound showed an MIC50 with CaCi2 of 0.0488 µM (≈ 0.0319 µg/mL). As to `Cn1cc(-c2ccnc3c2C(=O)N(CC2CCN(CC(=O)OC(Cn4cncn4)(Cn4cncn4)c4ccc(F)cc4F)CC2)C3)c(-c2ccc(F)cc2)n1` [Compound I-249, 2-(2,4-difluorophenyl)-1,3-di(1H-1,2,4-triazol-1-yl)propan-2-yl 2-(4-((4-(3-(4-fluorophenyl)-1-methyl-1H-pyrazol-4-yl)-5-oxo-5,7-dihydro-6H-pyrrolo[3,4-b]pyridin-6-yl)methyl)piperidin-1-yl)acetate], the IC50 at 48 h in data set [1] was over 50 µM. The compound `C[C@@H](NCc1ccc2c(-c3ccncc3)c(-c3ccc(F)cc3)nn2c1)[C@](O)(Cn1cncn1)c1ccc(F)cc1F` [Compound I-266, (2R,3R)-2-(2,4-difluorophenyl)-3-(((2-(4-fluorophenyl)-3-(pyridin-4-yl)pyrazolo[1,5-a]pyridin-6-yl)methyl)amino)-1-(1H-1,2,4-triazol-1-yl)butan-2-ol] registered an IC50 at 48 h in data set [1] of 19.5 µM. Further, the MIC50 with CaCi2 was found to be 0.195 µM (≈ 0.111 µg/mL). The matching figures for `O=C(NC1CCN(CC(O)(Cn2cncn2)c2ccc(F)cc2F)CC1)c1cccc2c(-c3ccncc3)c(-c3ccc(F)cc3)nn12` (centres unmarked) [Compound I-155, N-(1-(2-(2,4-difluorophenyl)-2-hydroxy-3-(1H-1,2,4-triazol-1-yl)propyl)piperidin-4-yl)-2-(4-fluorophenyl)-3-(pyridin-4-yl)pyrazolo[1,5-a]pyridine-7-carboxamide]: 10.1 µM and 0.781 µM (≈ 0.51 µg/mL). In the case of `OC(Cn1cnnn1)(c1ccc(F)cc1F)C(F)(F)c1ccc(-c2ccc(CNCc3ccc4c(-c5ccncc5)c(-c5ccc(F)cc5)nn4c3)cc2)cn1` (centres unmarked) [Compound I-269, 2-(2,4-difluorophenyl)-1,1-difluoro-1-(5-(4-((((2-(4-fluorophenyl)-3-(pyridin-4-yl)pyrazolo[1,5-a]pyridin-6-yl)methyl)amino)methyl)phenyl)pyridin-2-yl)-3-(1H-tetrazol-1-yl)propan-2-ol], the concentration for half-maximal inhibition (IC50) at 48 h in data set [1] came out at 3.67 µM. In the case of `Cn1cc(-c2ccnc3c2C(=O)N(CC2CCN(CC(O)(Cn4cncn4)c4ccc(F)cc4F)CC2)C3)c(-c2ccc(F)cc2)n1` (centres unmarked) [Compound I-230, 6-((1-(2-(2,4-difluorophenyl)-2-hydroxy-3-(1H-1,2,4-triazol-1-yl)propyl)piperidin-4-yl)methyl)-4-(3-(4-fluorophenyl)-1-methyl-1H-pyrazol-4-yl)-6,7-dihydro-5H-pyrrolo[3,4-b]pyridin-5-one], the IC50 in data set [2] came to 0.00293 µM. This compound displayed an MIC50 against CaCi2 of 1.88 µM (≈ 1.21 µg/mL).

`OC(Cn1cncn1)(c1ccc(F)cc1F)C(F)(F)c1ccc(C#Cc2ccc(NCc3ccc4c(-c5ccncc5)c(-c5ccc(F)cc5)nn4c3)cc2)cn1` (centres unmarked) [Compound I-268]: the IC50 at 48 h in data set [1] was over 50 µM. Moreover, in the data set with CaCi2, the MIC50 was found to be 1.17 µM (≈ 0.899 µg/mL). In data set [1], `Fc1ccc(-c2nn3cc(CNC[C@H]4CO[C@](Cn5cncn5)(c5ccc(F)cc5F)C4)ccc3c2-c2ccncc2)cc1` (stereo in doubt) [Compound I-256, 1-(trans-5-((1H-1,2,4-triazol-1-yl)methyl)-5-(2,4-difluorophenyl)tetrahydrofuran-3-yl)-N-((2-(4-fluorophenyl)-3-(pyridin-4-yl)pyrazolo[1,5-a]pyridin-6-yl)methyl)methanamine] yielded an IC50 at 48 h of 11.8 µM.

Turning to `Cn1cc(-c2ccncc2COCC[C@@](O)(Cn2cncn2)c2ccc(F)cc2F)c(-c2ccc(F)cc2)n1` [Compound I-236, (S)-2-(2,4-difluorophenyl)-4-((4-(3-(4-fluorophenyl)-1-methyl-1H-pyrazol-4-yl)pyridin-3-yl)methoxy)-1-(1H-1,2,4-triazol-1-yl)butan-2-ol], the half-inhibitory concentration (IC50) in data set [2] came to 0.169 µM. This compound also showed an MIC50 in the data set with CaCi2 of 2.34 µM (≈ 1.25 µg/mL).
